{
  "source": "patent US20240252695A9",
  "about": "“RADIOLABELED ETHER DENDRIMER CONJUGATES FOR PET IMAGING AND RADIOTHERAPY” (Ashvattha Therapeutics, Inc., priority 2020, published 2024)",
  "tested_on": "reactive microglia",
  "experiment": "PET/CT imaging of neuroinflammation in 5×FAD transgenic mice vs wild type",
  "type": "in vivo, mouse",
  "details": "3.75 months of age",
  "text": "To further evaluate the ability of ^18F-OP-801 to image neuroinflammation in neurogenerative diseases, the 5×FAD transgenic mouse model was used. 5×FAD transgenic mice (B6SJL-Tg (APPSwFlLon,PSEN1*M146L*L286V)6799Vas) expressed human APP and PSEN1 transgenes developing amyloid plaque within a few months after birth and previous studies with TSPO PET radiotracers have only been able to detect neuroinflammation around 6 months (˜26 weeks) of age with a high TPSO affinity radiotracer, ^18F-GE180. 5×FAD female mice and age matched controls were used at 3.75 months of age to evaluate ^18F-OP-801 compared to the TPSO radiotracer, ^18F-GE180. ^18F-OP-801 ([…]) was injected as an IV bolus into wild type (n=7) and 5×FAD females (n=12) at 3.75 months of age. ^18F-GE180 (150-250 μCi) was administered to the 5×FAD transgenic (n=5) and wild type (n=4) female mice at 3.75 months of age. Static 10-minute PET/CT images were acquired at 50-60 minutes post-injection.",
  "data": [
    {"molecule": "CCN(CC)C(=O)[C@H]1CCCc2c1c1c(OC)cccc1n2CC[18F]", "note": "[^18F-GE180]", "values": [
      {"measurement": "PET signal in 5×FAD mice compared to wild type mice", "setting": "50-60 minutes post-injection", "value": "minimal PET signal differences"},
      {"measurement": "TG-to-WT ratio, Cortex", "setting": "5xFAD mice", "value": 1.21},
      {"measurement": "TG-to-WT ratio, Hippocampus", "setting": "5xFAD mice", "value": 1.24},
      {"measurement": "TG-to-WT ratio, Whole Brain", "setting": "5xFAD mice", "value": 1.21}
    ]}
  ]
}
